Source: patent publication US4939274A, “Hydroxybutenolide derivatives, production and use thereof” (Takeda Chemical Industries, Ltd., priority 1986, dated 1990)

Key:
[1] = system: lipid peroxide formation in rat brain tissue homogenate; test: Activity to inhibit lipid peroxide formation in rat brain tissue homogenate (TBA method); format: biochemical; conditions: 10^-5 M; 5% rat brain homogenate, 37° C., 1 hour; n=3, mean; vs. DMSO reference
Protocol: Male SD rats (12-week-old) were subjected to exsanguination under anesthesia with pentobarbital, then the brain was excised. The brain tissue was homogenized in a phosphate buffer (pH 7.4) to prepare a 5% homogenate. After incubation of the homogenate at 37° C. for 1 hour, the amount of lipid peroxides formed therein was determined by the thiobarbituric acid (TBA) method in accordance with the report of Ohkawa et al. on Analytical Biochemistry, 95, 351, (1979). The test drug was added to the 5% homogenate before incubation so as to make the final concentration be 10^-5 M The activity to inhibit the formation of lipid peroxide was compared with that of the reference group to which was added the solvent (DMSO), and shown by % inhibition.

mice = test: Acute toxicity in mice; format: in vivo; conditions: oral, 300 and 1000 mg/kg
Protocol: Male Crj-ICR mice (4-week-old, 21 to 26 g) were used. The animals, divided into groups, each consisting of six mice, were administered orally with compounds (4-c, 4-h) at the dosages of 300 and 1000 mg/kg, respectively. Then, each group was housed in a cage and observed for 24 hours.
The test drugs were suspended in gum arabic and administered at a volume of 0.1 ml/10 g.

[2] = system: ventricular arrhythmia during coronary artery occlusion-reperfusion in rat hearts; test: Activity to inhibit occurrence of ventricular arrhythmia during coronary artery occlusion-reperfusion in rat hearts; format: in vivo; conditions: 50 mg/kg, oral; for Ventricular fibrillation, Incidence (10 min.) / Ventricular tachycardia, Incidence (10 min.): 10 min. observation; for Ventricular fibrillation, Incidence (10 min.): control 4.1 ± 0.7; for Ventricular tachycardia, Incidence (10 min.): control 11.5 ± 5.0; for Ventricular tachycardia, Duration / Ventricular fibrillation, Duration: average ± SEM; for Ventricular tachycardia, Duration: control 26.5 ± 6.8; for Ventricular fibrillation, Duration: control 74.2 ± 30.8; for Exrasystole: control 11.0 ± 4.0; for Mortality: killed/tested animals, control 2/18
Description: Male SD rats (9- to 13-week old, 250 to 370 g) were used. The animals were subjected to thoractonomy under artificial respiration while anesthesia was maintained by administering pentobarbital. […] By recording standard limb lead II electrocardiograms, occurrence of ventricular arrhythmia was examined.
Incidences of ventricular fibrillation and ventricular tachycardia are shown by the percentage of the number of animals presenting the symptoms relative to the number of animals subjected to the test, and the duration of the symptoms was shown in average ±SEM by seconds. Extrasystole is shown by the number of systole/min., and the mortality is shown by the percentage of the number of killed animals relative to the number of test animals.

SMILES: CCCCCOc1ccc(C2=C(O)COC2=O)cc1 [Compound 4-a]
- Inhibition rate (lipid peroxide formation) [1]: 57.1%

SMILES: CCCCCCCOc1ccc(C2=C(O)COC2=O)cc1 [Compound 4-b]
- Inhibition rate (lipid peroxide formation) [1]: 100.0%

SMILES: CCCCCCCCCCOc1ccc(C2=C(O)C(C)OC2=O)cc1 (stereo not shown) [Compound 4-d]
- Inhibition rate (lipid peroxide formation) [1]: 100.0%

SMILES: CCCCCCCCCCOc1ccc(C2=C(O)C(c3ccccc3)OC2=O)cc1 (stereo not shown) [Compound 4-e]
- Inhibition rate (lipid peroxide formation) [1]: 100.0%

SMILES: CCCCCCCCCCCOc1ccc(C2=C(O)COC2=O)cc1 [Compound 4-f]
- Inhibition rate (lipid peroxide formation) [1]: 89.7%

SMILES: CCCCCCCCCCCOc1ccc(C2=C(O)C(c3ccccc3)OC2=O)cc1 (stereo not shown) [Compound 4-g, 2-(4-undecyloxyphenyl)-3-hydroxy-4-phenyl-2-buten-4-olide]
- Inhibition rate (lipid peroxide formation) [1]: 100.0%

SMILES: CCCCCCCCCCCCOc1ccc(C2=C(O)COC2=O)cc1 [Compound 4-h, 2-(4-dodecyloxyphenyl)-3-hydroxy-2-buten-4-olide]
- Inhibition rate (lipid peroxide formation) [1]: 100.0%
- recovery from sedation and ptosis (mice): ≤ 3 h
- state of sedation and ptosis, animals affected (mice; six mice per group): half number of the test animals

SMILES: CCCCCCCCCCCCOc1ccc(C2=C(O)C(C)OC2=O)cc1 (stereo not shown) [Compound 4-i]
- Inhibition rate (lipid peroxide formation) [1]: 100.0%

SMILES: CCCCCCCCCCCCCCOc1ccc(C2=C(O)COC2=O)cc1 [Compound 4-j]
- Inhibition rate (lipid peroxide formation) [1]: 100.0%

SMILES: CCCCCCCCCCCCCCCCCCOc1ccc(C2=C(O)COC2=O)cc1 [Compound 4-k]
- Inhibition rate (lipid peroxide formation) [1]: 80.1%

SMILES: O=C1O[C@H]([C@@H](O)CO)C(O)=C1O [Vitamin C, ascorbic acid]
- Inhibition rate (lipid peroxide formation) [1]: -71.6%
- effect on ventricular arrhythmia [2]: no significant effect
- Ventricular fibrillation, Incidence (10 min.) [2]: 5.4 ± 0.8
- Ventricular tachycardia, Incidence (10 min.) [2]: 9.5 ± 1.8
- Ventricular tachycardia, Duration [2]: 12.0 ± 2.9 s
- Ventricular fibrillation, Duration [2]: 74.1 ± 36.0 s
- Exrasystole [2]: 11.0 ± 0.8 times/min.
- Mortality [2]: 1/12

SMILES: Cc1c(C)c2c(c(C)c1O)CC[C@@](C)(CCC[C@H](C)CCC[C@H](C)CCCC(C)C)O2 [Vitamin E, α-tocopherol]
- Inhibition rate (lipid peroxide formation) [1]: 44.9%
- effect on ventricular arrhythmia [2]: no significant effect
- Ventricular fibrillation, Incidence (10 min.) [2]: 2.0 ± 0.7
- Ventricular tachycardia, Incidence (10 min.) [2]: 3.7 ± 1.5
- Ventricular tachycardia, Duration [2]: 22.3 ± 9.7 s
- Ventricular fibrillation, Duration [2]: 43.4 ± 36.0 s
- Exrasystole [2]: 7.0 ± 4.1 times/min.
- Mortality [2]: 1/10
